The values that follow come from patent publication US20040254252A1, “Compositions containing a combination of a pharmaceutical agent or a cosmetic agent and an oxy group-bearing aromatic aldehyde and their use in treatments” (priority 2003, published 2004).

Series [1] is described as follows: Franz cell percutaneous absorption analysis. The format is in vitro ADME, human. The note with it: from lotion formulation with 1.0% 4-ethoxybenzaldehyde; 24 hour period. Here is the method: This lotion was then tested by Franz cell percutaneous absorption analysis to determine how much 4-EB could penetrate human skin over a 24 hour period. The lotion formulation above provided a flux rate of 4-EB through human skin of 30-50 micrograms/hour.

Series [2] has as its system TPA-induced PGE2 expression in keratinocytes. The experiment in a line: TPA-induced PGE-2 in human skin keratinocytes, ELISA of culture medium. The format is cell-based. Also noted: percent inhibition of TPA-induced PGE-2: unit of the concentration uncertain. As to conditions: TPA 32 nM. The protocol:
Similar in vitro studies as those described in Example 1 were run using human skin keratinocytes. The experimental set up was the same as described for Example 2, but replacing IL-1 with tetradecanoyl phorbol acetate (TPA) at a concentration of 32 nM as the agonist.
Similar in vitro studies as those described in Example 4 were run using human skin keratinocytes. The experimental set up was the same as described for Example 5 but replacing IL-1 with tetradecanoyl phorbol acetate (TPA) at a concentration of 32 nM as the agonist. The compounds tested were 2-ethoxybenzaldehyde (2-EB), and 3-ethoxybenzaldehyde (3-EB) and 4-ethoxybenzaldehyde (4-EB) in concentrations of either 10, 50, or 100 μM.
For orientation: An ELISA detects its analyte on a solid surface through an enzyme-linked reagent.

In another series the test system is UV-induced erythema. As to the kind of experiment: UVB-induced erythema on inner forearm of a volunteer, topical lotion. The format is in vivo, human. As to conditions: next day, 14 hours post-irradiation. The protocol:
This lotion was then tested to determine if it could prevent an inflammatory response when applied topically to human skin. For this study a lab volunteer was irradiated on a quarter sized spot on the inner forearm with 60-80 mJ of UVB light (a sunlamp). This dose was sufficient to cause a highly visible red erythema response. Immediately following irradiation on both arms, one arm was treated with the above 4-EB lotion while the other arm was treated with the same lotion formulation but with no 4-EB.

In a further series the test system is IL-1 induction of PGE-2. The experiment in a line: IL-1 induction of PGE-2 in human skin fibroblasts, ELISA of culture medium. The format is cell-based. The protocol:
For this experiment, human skin fibroblasts were seeded into 12 well culture dishes at a density of 80,000 cells/wells in tissue culture medium and left overnight to attach to the dish. The next day, medium was removed and replaced with fresh medium containing either 1% ethanol as a diluent control, IL-1 at a concentration of 500 picograms/ml, or IL-1 plus 4-EB at either 250 μM or 500 μM. Cells were incubated for an additional 24 hours and at this time, the medium was removed and assayed by ELISA for the presence of PGE-2 in the culture medium. […] The percent inhibitions are as follows: 4-EB, 100%, 6% and 10% at 50 μM, 10 μM and 1 μM.
Subsequent studies were carried out to determine the dose-response of human skin fibroblasts to 4-EB. […] The results of the study are provided graphically in FIG. 3A.
For this experiment, human skin fibroblasts were seeded into 12 well culture dishes at a density of 80,000 cells/wells in tissue culture medium and left overnight to attach to the dish. The next day, medium was removed and replaced with fresh medium containing either 1% ethanol as a diluent control, IL-1 at a concentration of 500 picograms/ml, or IL-1 plus one of the compounds under investigation at a concentration of 1, 10, 50 or 100 μM. Cells were incubated for an additional 24 hours and at this time, the medium was removed and assayed by ELISA for the presence of PGE-2 in the culture medium.

By inhibition is commonly meant the relative decrease from the control value, in per cent. As to `CCOc1ccc(C=O)cc1` [4-EB, 4-ethoxybenzaldehyde], the “flux rate of 4-EB through human skin” value in series [1] is recorded as 30-50 micrograms/hour. Further, the “percent inhibition of TPA-induced PGE-2” value in series [2] (50 μM) stood at 79.9%; in series [2] (1001 (unit uncertain)), 94.9%. For the same compound, in series [2] (Homo sapiens, Keratinocyte, 50 μM, read-out: percent inhibition of TPA-induced PGE-2), the inhibition at 50 µM came out at 79.9%. Moreover, the inhibition at 100 µM in series [2] (Homo sapiens, Keratinocyte, 100 μM, read-out: percent inhibition of TPA-induced PGE-2) is 94.9%. Besides, the “redness of the treated spot” value in the series with UV-induced erythema is recorded as “no redness”. Besides, the “percent inhibition of IL-1 induced PGE-2” value in the series on IL-1 induction of PGE-2 (50 μM, IL-1 500 picograms/ml, 24 hours) was determined as 82%. Further, in the series on IL-1 induction of PGE-2 (100 μM, dose-response study), the “block of the IL-1 induction of PGE-2 (in words)” value was “completely blocked”. In addition, the “inhibition of the IL-1 induction of PGE-2” value is on record as “complete inhibition” in the series with IL-1 induction of PGE-2 (250 μM, IL-1 500 picograms/ml, 24 hours) and “complete inhibition” in the series with IL-1 induction of PGE-2 (500 μM, IL-1 500 picograms/ml, 24 hours).

Consider `COc1ccc(C=O)cc1` [4-MB, 4-methoxybenzaldehyde], for which the “inhibition of the IL-1 induced production of PGE-2 (in words)” value in the series on IL-1 induction of PGE-2 (50 μM) is on record as “did not appear to inhibit”.
